The target in one assay is T1, FLT3-ITD (Homo sapiens, UniProt P36888).
T1 sequence (P36888 1-993): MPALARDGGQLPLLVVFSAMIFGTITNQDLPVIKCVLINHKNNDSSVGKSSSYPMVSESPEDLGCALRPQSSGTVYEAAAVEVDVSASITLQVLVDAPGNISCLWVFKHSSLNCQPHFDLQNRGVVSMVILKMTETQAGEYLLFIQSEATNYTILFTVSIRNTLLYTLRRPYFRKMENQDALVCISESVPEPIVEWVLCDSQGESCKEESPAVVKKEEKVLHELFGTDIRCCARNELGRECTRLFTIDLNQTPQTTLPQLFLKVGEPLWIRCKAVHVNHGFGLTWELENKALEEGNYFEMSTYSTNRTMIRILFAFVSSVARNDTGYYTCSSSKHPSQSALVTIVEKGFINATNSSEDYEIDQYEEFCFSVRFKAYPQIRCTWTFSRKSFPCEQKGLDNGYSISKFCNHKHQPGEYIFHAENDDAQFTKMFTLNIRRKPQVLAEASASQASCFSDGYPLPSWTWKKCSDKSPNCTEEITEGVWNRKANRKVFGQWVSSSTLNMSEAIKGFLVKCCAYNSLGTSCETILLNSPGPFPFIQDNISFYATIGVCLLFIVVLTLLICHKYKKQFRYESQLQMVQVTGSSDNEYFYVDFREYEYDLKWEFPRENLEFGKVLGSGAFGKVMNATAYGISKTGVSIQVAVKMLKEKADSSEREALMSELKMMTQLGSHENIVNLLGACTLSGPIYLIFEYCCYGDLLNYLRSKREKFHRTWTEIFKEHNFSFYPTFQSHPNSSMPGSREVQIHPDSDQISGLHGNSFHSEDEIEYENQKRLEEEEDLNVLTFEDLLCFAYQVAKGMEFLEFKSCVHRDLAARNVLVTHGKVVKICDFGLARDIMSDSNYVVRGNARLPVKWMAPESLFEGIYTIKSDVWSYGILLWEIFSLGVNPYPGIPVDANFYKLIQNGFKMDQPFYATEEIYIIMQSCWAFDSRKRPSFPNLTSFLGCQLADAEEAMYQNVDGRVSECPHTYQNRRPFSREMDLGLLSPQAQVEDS
As to the kind of experiment: AlphaScreen kinase assay with recombinant enzyme, FLT3-ITD. As to conditions: 8pt; read-out: FLT3_ITD 8pt: IC50. The format is biochemical. An outline of the steps:
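Tyrosine phosphorylation of biotin-poly(Glu4-Tyr) substrate by recombinant enzyme is detected with PY20 acceptor and streptavidin donor beads after room-temperature incubations of 20 and 60 min. IC50 values were derived at a final 10 μM (FLT3-D835Y, FLT3-ITD) or 100 μM (c-KIT).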

Assay [1] concerns MOLM-14 D835Y cells, FLT3 ITD and FLT3 D835Y. As to the kind of experiment: Cell proliferation assay (CellTiter-Glo), MOLM-14 D835Y. The assay is classed as cell-based. As to conditions: Homo sapiens, 72 h, 3d-Growth, GMean. An outline of the steps:
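Three-day growth at 37 °C, 5% CO2 under compound (1 μM top final, 1:3 dilutions, eight points, 0.2% DMSO), read as ATP luminescence by CellTiter-Glo for IC50. Cells: MOLM-14 with FLT3 ITD plus D835Y or F691L, and IL-3-deprived Ba/F3 transfected with FLT3 ITD/D835Y, 1×10^4 per well.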

Consider `CC(C)(C#N)CNC(=O)c1cccc(-c2cnc3[nH]c(C4=CCN(C(=O)C5CC5)CC4)cc3c2)n1` [Compound P-0162, N-(2-cyano-2-methyl-propyl)-6-[2-[1-(cyclopropanecarbonyl)-3,6-dihydro-2H-pyridin-4-yl]-1H-pyrrolo[2,3-b]pyridin-5-yl]pyridine-2-carboxamide], for which the half-maximal inhibitory concentration (IC50) (at FLT3-ITD; in assay [1]) was 0.0001 to 10 µM in each case.
With `Cc1cc(-c2cc3cc(-c4cccc(C(=O)NC(C)(C)C#N)n4)cnc3[nH]2)cnn1` [Compound P-0163, N-(1-cyano-1-methyl-ethyl)-6-[2-(6-methylpyridazin-4-yl)-1H-pyrrolo[2,3-b]pyridin-5-yl]pyridine-2-carboxamide], the IC50 (on FLT3-ITD; in assay [1]) was 0.0001 to 10 µM each time.
Regarding `CC(C)(C#N)NC(=O)c1cccc(-c2cnc3[nH]c(-c4cnn(C(F)F)c4)cc3c2)n1` [Compound P-0164, N-(2-cyanopropan-2-yl)-6-(2-(1-(difluoromethyl)-1H-pyrazol-4-yl)-1H-pyrrolo[2,3-b]pyridin-5-yl)picolinamide], the IC50 (on FLT3-ITD; in assay [1]) was 0.0001 to 10 µM throughout.
`CC(C)(C#N)NC(=O)c1cccc(-c2cnc3[nH]c(-c4cnn(C5CC5)c4)cc3c2)n1` [Compound P-0165, N-(1-cyano-1-methyl-ethyl)-6-[2-(1-cyclopropylpyrazol-4-yl)-1H-pyrrolo[2,3-b]pyridin-5-yl]pyridine-2-carboxamide]: the IC50 (at FLT3-ITD; in assay [1]) was 0.0001 to 10 µM each time.
In the case of `CC(C)(C#N)NC(=O)c1cccc(-c2cnc3[nH]c(-c4cnc(C5CC5)nc4)cc3c2)n1` [Compound P-0166, N-(1-cyano-1-methyl-ethyl)-6-[2-(2-cyclopropylpyrimidin-5-yl)-1H-pyrrolo[2,3-b]pyridin-5-yl]pyridine-2-carboxamide], the IC50 (at FLT3-ITD; in assay [1]) was 0.0001 to 10 µM throughout.
With `CC(C)(C#N)NC(=O)c1cccc(-c2cnc3[nH]c(-c4ccc(C5CC5)nc4)cc3c2)n1` [Compound P-0168, N-(1-cyano-1-methyl-ethyl)-6-[2-(6-cyclopropyl-3-pyridyl)-1H-pyrrolo[2,3-b]pyridin-5-yl]pyridine-2-carboxamide], the half-inhibitory concentration (IC50) (at FLT3-ITD; in assay [1]) was 0.0001 to 10 µM throughout.
On to `Cc1nc(C(C)C)sc1-c1cc2cc(-c3cccc(C(=O)NC(C)(C)C#N)n3)cnc2[nH]1` [Compound P-0169, N-(1-cyano-1-methyl-ethyl)-6-[2-(2-isopropyl-4-methyl-thiazol-5-yl)-1H-pyrrolo[2,3-b]pyridin-5-yl]pyridine-2-carboxamide], for which the half-maximal inhibitory concentration (IC50) (at FLT3-ITD; in assay [1]) was 0.0001 to 10 µM in each case.
For `CC(C)(C#N)NC(=O)c1cccc(-c2cnc3[nH]c(-c4cnn(CCC#N)c4)cc3c2)n1` [Compound P-0170, 6-[2-[1-(2-cyanoethyl)pyrazol-4-yl]-1H-pyrrolo[2,3-b]pyridin-5-yl]-N-(1-cyano-1-methyl-ethyl)pyridine-2-carboxamide], the IC50 (at FLT3-ITD; in assay [1]) was 0.0001 to 10 µM throughout.
Take `CC(C)(C#N)NC(=O)c1cccc(-c2cnc3[nH]c(-c4cnn(Cc5ccccc5)c4)cc3c2)n1` [Compound P-0171, 6-[2-(1-benzylpyrazol-4-yl)-1H-pyrrolo[2,3-b]pyridin-5-yl]-N-(1-cyano-1-methyl-ethyl)pyridine-2-carboxamide]: the IC50 (at FLT3-ITD; in assay [1]) was 0.0001 to 10 µM throughout.
As for `COCCn1cc(-c2cc3cc(-c4cccc(C(=O)NC(C)(C)C#N)n4)cnc3[nH]2)cn1` [Compound P-0172, N-(1-cyano-1-methyl-ethyl)-6-[2-[1-(2-methoxyethyl)pyrazol-4-yl]-1H-pyrrolo[2,3-b]pyridin-5-yl]pyridine-2-carboxamide], the IC50 (on FLT3-ITD; in assay [1]) was 0.0001 to 10 µM each time.
In the case of `CC(C)(C#N)NC(=O)c1cccc(-c2cnc3[nH]c(-c4cnn(C5CCOC5)c4)cc3c2)n1` (stereo not drawn) [Compound P-0173, N-(1-cyano-1-methyl-ethyl)-6-[2-(1-tetrahydrofuran-3-ylpyrazol-4-yl)-1H-pyrrolo[2,3-b]pyridin-5-yl]pyridine-2-carboxamide], the IC50 (on FLT3-ITD; in assay [1]) was 0.0001 to 10 µM in each case.
As for `CC(C)(C#N)NC(=O)c1cccc(-c2cnc3[nH]c(-c4cnn(CCN5CCOCC5)c4)cc3c2)n1` [Compound P-0174, N-(1-cyano-1-methyl-ethyl)-6-[2-[1-(2-morpholinoethyl)pyrazol-4-yl]-1H-pyrrolo[2,3-b]pyridin-5-yl]pyridine-2-carboxamide], the IC50 (at FLT3-ITD; in assay [1]) was 0.0001 to 10 µM throughout.
As to `C#Cc1cc2cc(-c3cccc(C(=O)NC(C)(C)C#N)n3)cnc2[nH]1` [Compound P-0175, N-(1-cyano-1-methyl-ethyl)-6-(2-ethynyl-1H-pyrrolo[2,3-b]pyridin-5-yl)pyridine-2-carboxamide], the IC50 (at FLT3-ITD; in assay [1]) was 0.0001 to 10 µM each time.
Consider `CC(C)(C#N)NC(=O)c1cccc(-c2cnc3[nH]c(C#Cc4ccccc4)cc3c2)n1` [Compound P-0176, N-(1-cyano-1-methyl-ethyl)-6-[2-(2-phenylethynyl)-1H-pyrrolo[2,3-b]pyridin-5-yl]pyridine-2-carboxamide], for which the IC50 (on FLT3-ITD; in assay [1]) was 0.0001 to 10 µM each time.
Regarding `Cn1cncc1C#Cc1cc2cc(-c3cccc(C(=O)NC(C)(C)C#N)n3)cnc2[nH]1` [Compound P-0177, N-(1-cyano-1-methyl-ethyl)-6-[2-[2-(3-methylimidazol-4-yl)ethynyl]-1H-pyrrolo[2,3-b]pyridin-5-yl]pyridine-2-carboxamide], the IC50 (at FLT3-ITD; in assay [1]) was 0.0001 to 10 µM each time.
Regarding `Cc1nn(C(C)C)cc1-c1cc2cc(-c3cccc(C(=O)NC(C)(C)C#N)n3)cnc2[nH]1` [Compound P-0178, N-(1-cyano-1-methyl-ethyl)-6-[2-(1-isopropyl-3-methyl-pyrazol-4-yl)-1H-pyrrolo[2,3-b]pyridin-5-yl]pyridine-2-carboxamide], the IC50 (on FLT3-ITD; in assay [1]) was 0.0001 to 10 µM in each case.
As to `CC(C)(NC(=O)c1cccc(-c2cnc3[nH]c(C4=CCN(C(=O)C5CC5)C4)cc3c2)n1)C(N)=O` [Compound P-0179, N-(2-amino-1,1-dimethyl-2-oxo-ethyl)-6-[2-[1-(cyclopropanecarbonyl)-2,5-dihydropyrrol-3-yl]-1H-pyrrolo[2,3-b]pyridin-5-yl]pyridine-2-carboxamide], the half-inhibitory concentration (IC50) (on FLT3-ITD; in assay [1]) was 0.0001 to 10 µM in each case.
For `CC(C)(C#N)NC(=O)c1cccc(-c2cnc3[nH]c(C4=CCSCC4)cc3c2)n1` [Compound P-0180, N-(1-cyano-1-methyl-ethyl)-6-[2-(3,6-dihydro-2H-thiopyran-4-yl)-1H-pyrrolo[2,3-b]pyridin-5-yl]pyridine-2-carboxamide], the IC50 (on FLT3-ITD; in assay [1]) was 0.0001 to 10 µM throughout.
As for `CC(C)(C#N)NC(=O)c1cccc(-c2cnc3[nH]c(C4=CCN(C(=O)C5CC5)CC4)cc3c2)n1` [Compound P-0181, N-(1-cyano-1-methyl-ethyl)-6-[2-[1-(cyclopropanecarbonyl)-3,6-dihydro-2H-pyridin-4-yl]-1H-pyrrolo[2,3-b]pyridin-5-yl]pyridine-2-carboxamide], the IC50 (at FLT3-ITD; in assay [1]) was 0.0001 to 10 µM throughout.
As for `CC(C)(C#N)NC(=O)c1cccc(-c2cnc3[nH]c(C4=CCNCC4)cc3c2)n1` [Compound P-0182, N-(1-cyano-1-methyl-ethyl)-6-[2-(1,2,3,6-tetrahydropyridin-4-yl)-1H-pyrrolo[2,3-b]pyridin-5-yl]pyridine-2-carboxamide], the IC50 (at FLT3-ITD; in assay [1]) was 0.0001 to 10 µM in each case.
For the compound `CC(C)(C#N)NC(=O)c1cccc(-c2cnc3[nH]c(-c4cn[nH]c4)cc3c2)n1` [Compound P-0183, N-(1-cyano-1-methyl-ethyl)-6-[2-(1H-pyrazol-4-yl)-1H-pyrrolo[2,3-b]pyridin-5-yl]pyridine-2-carboxamide], the IC50 (on FLT3-ITD; in assay [1]) was 0.0001 to 10 µM in each case.

(Values after patent US9938273B2 (Plexxikon Inc., priority 2015, dated 2018).)
